The source of these data is patent US11464770B2, “Anticancer pharmaceutical composition” (NATIONAL CANCER CENTER, priority 2016, dated 2022).

This assay concerns breast cancer cell lines (e.g. MDA-MB-231, SK-BR-3, MDA-MB-468, HCC1954). Description: Cell based assay, cell viability (CellTiter-Glo), breast cancer cell lines. How it is done: Commercially available bladder cancer, prostate cancer, lung cancer, breast cancer, blood cancer, pancreatic cancer, colorectal cancer, brain cancer, neuroblastoma, melanoma, liver cancer, cervical carcinoma, ovarian cancer, renal cancer, and papilloma cell lines were each treated with trypsin-EDTA and cultured, followed by being seeded in each well of a 96 well plate. After 24 hours of treatment at constant temperature, the respective cells were treated with the candidate compound so that a final concentration became 0 to 2 μM. The treated cells were additionally cultured for 72 hours, and cell viability was measured by using an ATP detection method (CellTiter-Glo® Luminescent Cell Viability Assay, Promega).

The mark [1] stands for this setting: Breast cancer cell line MDA-MB-231-L/DOX, 72 hours, CellTiter-Glo, read-out: IC50, MDA-MB-231-L/DOX.
The mark [2] stands for this setting: Homo sapiens, Breast cancer cell line BT-20, 72 hours, CellTiter-Glo, read-out: IC50, BT-20.
Setting [3] is: Homo sapiens, Breast cancer cell line HCC1395, 72 hours, CellTiter-Glo, read-out: IC50, HCC1395.
The mark [4] stands for this setting: Homo sapiens, Breast cancer cell line HCC1954, 72 hours, CellTiter-Glo, read-out: IC50, HCC1954.
Setting [5] is: Homo sapiens, Breast cancer cell line JIMT-1, 72 hours, CellTiter-Glo, read-out: IC50, JIMT-1.
The mark [6] stands for this setting: Homo sapiens, Breast cancer cell line MCF7, 72 hours, CellTiter-Glo, read-out: IC50, MCF7.
Setting [7] is: Homo sapiens, Breast cancer cell line MDA-MB-231, 72 hours, CellTiter-Glo, read-out: IC50, MDA-MB-231.
Where [8] appears, read: Homo sapiens, Breast cancer cell line MDA-MB-468, 72 hours, CellTiter-Glo, read-out: IC50, MDA-MB-468.
Where [9] appears, read: Homo sapiens, Breast cancer cell line SK-BR-3, 72 hours, CellTiter-Glo, read-out: IC50, SK-BR-3.
Where [10] appears, read: Homo sapiens, BT-20 cells, 72 hours treatment, CellTiter-Glo cell viability, read-out: IC50, Breast cancer cell line BT-20.
The mark [11] stands for this setting: Homo sapiens, HCC1395 cells, 72 hours treatment, CellTiter-Glo cell viability, read-out: IC50, Breast cancer cell line HCC1395.
Setting [12] is: Homo sapiens, HCC1954 cells, 72 hours treatment, CellTiter-Glo cell viability, read-out: IC50, Breast cancer cell line HCC1954.
[13] abbreviates: Homo sapiens, JIMT-1 cells, 72 hours treatment, CellTiter-Glo cell viability, read-out: IC50, Breast cancer cell line JIMT-1.
Where [14] appears, read: Homo sapiens, MCF7 cells, 72 hours treatment, CellTiter-Glo cell viability, read-out: IC50, Breast cancer cell line MCF7.
Where [15] appears, read: Homo sapiens, MDA-MB-231 cells, 72 hours treatment, CellTiter-Glo cell viability, read-out: IC50, Breast cancer cell line MDA-MB-231.
Setting [16] is: Homo sapiens, MDA-MB-468 cells, 72 hours treatment, CellTiter-Glo cell viability, read-out: IC50, Breast cancer cell line MDA-MB-468.
[17] abbreviates: Homo sapiens, SK-BR-3 cells, 72 hours treatment, CellTiter-Glo cell viability, read-out: IC50, Breast cancer cell line SK-BR-3.
Where [18] appears, read: MDA-MB-231-L/DOX cells, 72 hours treatment, CellTiter-Glo cell viability, read-out: IC50, Breast cancer cell line MDA-MB-231-L/DOX.

Read-outs that look alike come from different tables or passages of the source.

As to `CC(=O)c1c(SCc2ccc([N+](=O)[O-])cc2)[nH]c2c(Br)ccc(Cl)c2c1=O` [Compound 32, 3-acetyl-8-bromo-5-chloro-2-((4-nitrobenzyl)thio)quinolin-4(1H)-one], the IC50 is > 2000 nM under setting [1]; > 2000 nM under setting [2]; > 10000 nM under setting [3]; > 2000 nM under setting [4]; > 10000 nM under setting [5]; > 2000 nM under setting [6]. Further, the IC50 by setting is: under setting [7], > 2000 nM; under setting [8], > 2000 nM; under setting [9], > 2000 nM.
For the compound `CC(=O)c1c(SC(C)C)[nH]c2c(Br)ccc(Cl)c2c1=O` [Compound 24, 3-acetyl-8-bromo-5-chloro-2-(isopropylthio)quinolin-4(1H)-one], the IC50 under setting [1] is > 2000 nM; the IC50 under setting [2] was > 2000 nM; the IC50 under setting [3] is > 10000 nM; the IC50 under setting [4] is > 2000 nM; the IC50 under setting [5] was > 10000 nM; the IC50 under setting [6] was > 2000 nM. The IC50 is, setting by setting: under setting [7], > 2000 nM; under setting [8], > 2000 nM; under setting [9], > 2000 nM.
Regarding `CC(=O)c1c(SCc2ccccc2)n(C(=O)c2ccc(Br)cc2)c2c(Br)ccc(Cl)c2c1=O` [Compound 23, 3-acetyl-2-(benzylthio)-8-bromo-1-(4-bromobenzoyl)-5-chloroquinolin-4(1H)-one], the IC50 under setting [1] was > 2000 nM; the IC50 under setting [2] was > 2000 nM; the IC50 under setting [3] was > 10000 nM; the IC50 under setting [4] is > 2000 nM; the IC50 under setting [5] is > 10000 nM; the IC50 under setting [6] was > 2000 nM. Further, the IC50 was > 2000 nM under setting [7], > 2000 nM under setting [8] and > 2000 nM under setting [9].
On to `COCCNc1ccc(C[S+]([O-])c2[nH]c3c(Br)ccc(Cl)c3c(=O)c2C(C)=O)cn1` (centres unmarked) [Compound 105, 3-acetyl-8-bromo-5-chloro-2-(((6-((2-methoxyethyl)amino)pyridin-3-yl)methyl)sulfinyl)quinolin-4(1H)-one], for which the IC50 under setting [10] was > 2000 nM; the IC50 under setting [11] is > 10000 nM; the IC50 under setting [12] is > 2000 nM; the IC50 under setting [13] was > 10000 nM; the IC50 under setting [14] is > 2000 nM; the IC50 under setting [15] is > 2000 nM. The IC50 runs as follows: under setting [16], > 2000 nM; under setting [17], > 2000 nM; under setting [18], > 2000 nM.
For the compound `CC(=O)c1c([S+]([O-])Cc2ccc(S(F)(F)(F)(F)F)cc2)[nH]c2c(Br)ccc(Cl)c2c1=O` (centres unmarked) [Compound 68, 3-acetyl-8-bromo-5-chloro-2-((4-(pentafluoro-16-sulfanyl)benzyl)sulfinyl)quinolin-4(1H)-one], the IC50 under setting [1] is > 2000 nM; the IC50 under setting [2] is > 2000 nM; the IC50 under setting [3] was > 10000 nM; the IC50 under setting [4] is > 2000 nM; the IC50 under setting [5] was > 10000 nM; the IC50 under setting [6] is > 2000 nM. The IC50 by setting is: under setting [7], 1220 nM; under setting [8], > 2000 nM; under setting [9], 1230 nM.
As for `CSc1[nH]c2ccc(F)cc2c(=O)c1C(C)=O` [Compound 8, 1-(6-fluoro-4-hydroxy-2-(methylthio)quinolin-3-yl)ethan-1-one], the IC50 runs as follows: under setting [1], > 2000 nM; under setting [2], > 2000 nM; under setting [3], > 10000 nM; under setting [4], > 2000 nM; under setting [5], > 10000 nM; under setting [6], > 2000 nM. Also, the IC50 under setting [7] is > 2000 nM, the IC50 under setting [8] was > 2000 nM and the IC50 under setting [9] was > 2000 nM.
Turning to `CC(=O)c1c([S+]([O-])Cc2cccc(S(F)(F)(F)(F)F)c2)[nH]c2c(Br)ccc(Cl)c2c1=O` (centres unmarked) [Compound 77, 3-acetyl-8-bromo-5-chloro-2-((3-(pentafluoro--sulfanyl)benzyl)sulfinyl)quinolin-4(1H)-one], the IC50 reads like this: under setting [1], > 2000 nM; under setting [2], > 2000 nM; under setting [3], > 10000 nM; under setting [4], > 2000 nM; under setting [5], > 10000 nM; under setting [6], > 2000 nM. Also, the IC50 was > 2000 nM under setting [7], > 2000 nM under setting [8] and 1440 nM under setting [9].
`CC(=O)c1c([S+]([O-])Cc2ccc(SC(F)(F)F)cc2)[nH]c2c(Cl)ccc(Cl)c2c1=O` (centres unmarked) [Compound 79, 3-acetyl-5,8-dichloro-2-((4-((trifluoromethyl)thio)benzyl)sulfinyl)quinolin-4(1H)-one]: the IC50 reads like this: under setting [1], > 2000 nM; under setting [2], > 2000 nM; under setting [3], > 10000 nM; under setting [4], > 2000 nM; under setting [5], > 10000 nM; under setting [6], > 2000 nM. Besides, the IC50 was > 2000 nM under setting [7], > 2000 nM under setting [8] and > 2000 nM under setting [9].
Regarding `CC(=O)c1c(SCc2cc(F)cc(F)c2)[nH]c2c(Br)ccc(Cl)c2c1=O` [Compound 45, 3-acetyl-8-bromo-5-chloro-2-((3,5-difluorobenzyl)thio)quinolin-4(1H)-one], the IC50 by setting is: under setting [1], > 2000 nM; under setting [2], > 2000 nM; under setting [3], > 10000 nM; under setting [4], > 2000 nM; under setting [5], > 10000 nM; under setting [6], > 2000 nM. Moreover, the IC50 reads like this: under setting [7], > 2000 nM; under setting [8], > 2000 nM; under setting [9], > 2000 nM.
For the compound `CC(=O)c1c([S+]([O-])c2ccc(Br)cc2)[nH]c2c(Br)ccc(Cl)c2c1=O` (centres unmarked) [Compound 17, 3-acetyl-8-bromo-2-((4-bromophenyl)sulfinyl)-5-chloroquinolin-4(1H)-one], the IC50 runs as follows: under setting [1], > 2000 nM; under setting [2], > 2000 nM; under setting [3], > 10000 nM; under setting [4], > 2000 nM; under setting [5], > 10000 nM; under setting [6], > 2000 nM. Also, the IC50 is, setting by setting: under setting [7], > 2000 nM; under setting [8], > 2000 nM; under setting [9], > 2000 nM.
Take `CC(=O)c1c([S+]([O-])Cc2ccccc2)nc2c(Br)ccc(Cl)c2c1O` (centres unmarked) [Compound 4]: the IC50 is, setting by setting: under setting [2], > 2000 nM; under setting [3], > 10000 nM; under setting [4], > 2000 nM; under setting [5], > 10000 nM; under setting [6], > 2000 nM; under setting [7], > 2000 nM. Moreover, the IC50 reads like this: under setting [8], > 2000 nM; under setting [9], 910 nM.
Turning to `CC(=O)c1c(SCc2cc(Cl)ccc2Cl)[nH]c2c(Br)ccc(Cl)c2c1=O` [Compound 43, 3-acetyl-8-bromo-5-chloro-2-((2,5-dichlorobenzyl)thio)quinolin-4(1H)-one], the IC50 by setting is: under setting [1], > 2000 nM; under setting [2], > 2000 nM; under setting [3], > 10000 nM; under setting [4], > 2000 nM; under setting [5], > 10000 nM; under setting [6], > 2000 nM. The IC50 under setting [7] was > 2000 nM, the IC50 under setting [8] is > 2000 nM and the IC50 under setting [9] was > 2000 nM.
Take `CC(=O)c1c([S+](C)[O-])n(S(=O)(=O)C(F)(F)F)c2c(Br)ccc(Cl)c2c1=O` (centres unmarked) [Compound 36, 3-acetyl-8-bromo-5-chloro-2-(methylsulfinyl)-1-((trifluoromethyl)sulfonyl)quinolin-4(1H)-one]: the IC50 under setting [1] was > 2000 nM; the IC50 under setting [2] is > 2000 nM; the IC50 under setting [3] is > 10000 nM; the IC50 under setting [4] is > 2000 nM; the IC50 under setting [5] was > 10000 nM; the IC50 under setting [6] was > 2000 nM. The IC50 under setting [7] is > 2000 nM, the IC50 under setting [8] was > 2000 nM and the IC50 under setting [9] was > 2000 nM.
Turning to `CC(=O)c1c([S+]([O-])Cc2ccc(-n3cccn3)nc2)[nH]c2c(Br)ccc(Cl)c2c1=O` (centres unmarked) [Compound 99, 2-(((6-(1H-pyrazol-1-yl)pyridin-3-yl)methyl)sulfinyl)-3-acetyl-8-bromo-5-chloroquinolin-4(1H)-one], the IC50 under setting [10] is > 2000 nM; the IC50 under setting [11] is > 2000 nM; the IC50 under setting [12] turned out to be 780 nM; the IC50 under setting [13] was > 10000 nM; the IC50 under setting [14] is > 2000 nM; the IC50 under setting [15] was found to be 1170 nM. Further, the IC50 under setting [16] came out at 670 nM, the IC50 under setting [17] amounted to 670 nM and the IC50 under setting [18] was > 2000 nM.
In the case of `CC(=O)c1c([S+]([O-])Cc2ccc(C#N)s2)[nH]c2c(Br)ccc(Cl)c2c1=O` (centres unmarked) [Compound 98, 5-(((3-acetyl-8-bromo-5-chloro-4-oxo-1,4-dihydroquinolin-2-yl)sulfinyl)methyl)thiophene-2-carbonitrile], the IC50 by setting is: under setting [10], > 2000 nM; under setting [11], > 10000 nM; under setting [12], 1310 nM; under setting [13], > 10000 nM; under setting [14], > 2000 nM; under setting [15], 1860 nM. The IC50 under setting [16] was found to be 1000 nM, the IC50 under setting [17] amounted to 1000 nM and the IC50 under setting [18] is > 2000 nM.
For `CC(=O)c1c([S+]([O-])CN2C(=O)c3ccccc3C2=O)[nH]c2c(Cl)ccc(Cl)c2c1=O` (centres unmarked) [Compound 90, 2-(((3-acetyl-5,8-dichloro-4-oxo-1,4-dihydroquinolin-2-yl)sulfinyl)methyl)isoindoline-1,3-dione], the IC50 runs as follows: under setting [10], > 2000 nM; under setting [11], > 10000 nM; under setting [12], > 2000 nM; under setting [13], > 10000 nM; under setting [14], > 2000 nM; under setting [15], > 2000 nM. The IC50 under setting [16] is > 2000 nM, the IC50 under setting [17] is > 2000 nM and the IC50 under setting [18] is > 2000 nM.
